{"source": "PubChem BioAssay (NCI)", "test_in_all_cases": "NCI tumour cell line growth inhibition, 48 h", "key": {"786-0 renal": {"system": "786-0 renal"}, "A498 renal": {"system": "A498 renal"}, "A549 NSCLC": {"system": "A549 NSCLC"}, "CAKI-1 renal": {"system": "CAKI-1 renal"}, "CCRF-CEM leukemia": {"system": "CCRF-CEM leukemia"}, "COLO 205 colon": {"system": "COLO 205 colon"}, "DLD-1 colon": {"system": "DLD-1 colon"}, "DMS 114 small cell lung": {"system": "DMS 114 small cell lung"}, "DMS 273 small cell lung": {"system": "DMS 273 small cell lung"}, "EKVX NSCLC": {"system": "EKVX NSCLC"}, "HCC-2998 colon": {"system": "HCC-2998 colon"}, "HCT-116 colon": {"system": "HCT-116 colon"}, "HCT-15 colon": {"system": "HCT-15 colon"}, "HL-60(TB) leukemia": {"system": "HL-60(TB) leukemia"}, "HOP-62 NSCLC": {"system": "HOP-62 NSCLC"}, "HOP-92 NSCLC": {"system": "HOP-92 NSCLC"}, "HT29 colon": {"system": "HT29 colon"}, "IGROV1 ovarian": {"system": "IGROV1 ovarian"}, "K-562 leukemia": {"system": "K-562 leukemia"}, "KM12 colon": {"system": "KM12 colon"}, "LOX IMVI melanoma": {"system": "LOX IMVI melanoma"}, "LXFL 529 NSCLC": {"system": "LXFL 529 NSCLC"}, "M14 melanoma": {"system": "M14 melanoma"}, "M19-MEL melanoma": {"system": "M19-MEL melanoma"}, "MALME-3M melanoma": {"system": "MALME-3M melanoma"}, "MOLT-4 leukemia": {"system": "MOLT-4 leukemia"}, "NCI-H23 lung": {"system": "NCI-H23 lung"}, "NCI-H460 lung": {"system": "NCI-H460 lung"}, "NCI-H522 lung": {"system": "NCI-H522 lung"}, "OVCAR-3 ovarian": {"system": "OVCAR-3 ovarian"}, "OVCAR-4 ovarian": {"system": "OVCAR-4 ovarian"}, "OVCAR-8 ovarian": {"system": "OVCAR-8 ovarian"}, "RPMI-8226 leukemia": {"system": "RPMI-8226 leukemia"}, "RXF 393 renal": {"system": "RXF 393 renal"}, "RXF-631 renal": {"system": "RXF-631 renal"}, "SF-268 CNS": {"system": "SF-268 CNS"}, "SF-295 CNS": {"system": "SF-295 CNS"}, "SF-539 CNS": {"system": "SF-539 CNS"}, "SK-MEL-2 melanoma": {"system": "SK-MEL-2 melanoma"}, "SK-MEL-28 melanoma": {"system": "SK-MEL-28 melanoma"}, "SK-MEL-5 melanoma": {"system": "SK-MEL-5 melanoma"}, "SK-OV-3 ovarian": {"system": "SK-OV-3 ovarian"}, "SN12C renal": {"system": "SN12C renal"}, "SNB-19 CNS": {"system": "SNB-19 CNS"}, "SNB-75 CNS": {"system": "SNB-75 CNS"}, "SNB-78 CNS": {"system": "SNB-78 CNS"}, "SW-620 colon": {"system": "SW-620 colon"}, "TK-10 renal": {"system": "TK-10 renal"}, "U251 CNS": {"system": "U251 CNS"}, "UACC-257 melanoma": {"system": "UACC-257 melanoma"}, "UACC-62 melanoma": {"system": "UACC-62 melanoma"}, "UO-31 renal": {"system": "UO-31 renal"}, "XF 498 CNS": {"system": "XF 498 CNS"}, "HOP-18 NSCLC": {"system": "HOP-18 NSCLC"}, "P388 leukemia": {"system": "P388 leukemia"}, "P388/ADR leukemia": {"system": "P388/ADR leukemia"}}, "note": "Where “and” joins values, the source holds several entries; their conditions need not be identical. Equal entries are not always repeated.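 Five compound concentrations were applied to cells in 96-well plates for 48 hours; endpoints were derived by simple linear interpolation of the resulting dose-response curve. At the GI50, growth is halved. TGI: concentration producing complete growth inhibition.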"}
{"smiles": "CC1(C)CC(=O)C=C(NC(=O)c2ccccc2)C1", "values": [{"measurement": "TGI", "setting": "786-0 renal", "result": "> 100", "unit": "µM"}, {"measurement": "TGI", "setting": "A498 renal", "result": "> 100", "unit": "µM"}, {"measurement": "TGI", "setting": "A549 NSCLC", "result": "> 100", "unit": "µM"}, {"measurement": "TGI", "setting": "CAKI-1 renal", "result": "> 100", "unit": "µM"}, {"measurement": "TGI", "setting": "CCRF-CEM leukemia", "result": "> 100", "unit": "µM"}, {"measurement": "TGI", "setting": "COLO 205 colon", "result": "> 100", "unit": "µM"}, {"measurement": "TGI", "setting": "DLD-1 colon", "result": "> 100", "unit": "µM"}, {"measurement": "TGI", "setting": "DMS 114 small cell lung", "result": "> 100", "unit": "µM"}, {"measurement": "TGI", "setting": "DMS 273 small cell lung", "result": "> 100", "unit": "µM"}, {"measurement": "TGI", "setting": "EKVX NSCLC", "result": "> 100", "unit": "µM"}, {"measurement": "TGI", "setting": "HCC-2998 colon", "result": "> 100", "unit": "µM"}, {"measurement": "TGI", "setting": "HCT-116 colon", "result": "> 100", "unit": "µM"}, {"measurement": "TGI", "setting": "HCT-15 colon", "result": "> 100", "unit": "µM"}, {"measurement": "TGI", "setting": "HL-60(TB) leukemia", "result": "> 100", "unit": "µM"}, {"measurement": "TGI", "setting": "HOP-62 NSCLC", "result": "> 100", "unit": "µM"}, {"measurement": "TGI", "setting": "HOP-92 NSCLC", "result": "> 100", "unit": "µM"}, {"measurement": "TGI", "setting": "HT29 colon", "result": "> 100", "unit": "µM"}, {"measurement": "TGI", "setting": "IGROV1 ovarian", "result": "> 100", "unit": "µM"}, {"measurement": "TGI", "setting": "K-562 leukemia", "result": "> 100", "unit": "µM"}, {"measurement": "TGI", "setting": "KM12 colon", "result": "> 100", "unit": "µM"}, {"measurement": "TGI", "setting": "LOX IMVI melanoma", "result": "> 100", "unit": "µM"}, {"measurement": "TGI", "setting": "LXFL 529 NSCLC", "result": "> 100", "unit": "µM"}, {"measurement": "TGI", "setting": "M14 melanoma", "result": "> 100", "unit": "µM"}, {"measurement": "TGI", "setting": "M19-MEL melanoma", "result": "> 100", "unit": "µM"}, {"measurement": "TGI", "setting": "MALME-3M melanoma", "result": "> 100", "unit": "µM"}, {"measurement": "TGI", "setting": "MOLT-4 leukemia", "result": "> 100", "unit": "µM"}, {"measurement": "TGI", "setting": "NCI-H23 lung", "result": "> 100", "unit": "µM"}, {"measurement": "TGI", "setting": "NCI-H460 lung", "result": "> 100", "unit": "µM"}, {"measurement": "TGI", "setting": "NCI-H522 lung", "result": "> 100", "unit": "µM"}, {"measurement": "TGI", "setting": "OVCAR-3 ovarian", "result": "> 100", "unit": "µM"}, {"measurement": "TGI", "setting": "OVCAR-4 ovarian", "result": "> 100", "unit": "µM"}, {"measurement": "TGI", "setting": "OVCAR-8 ovarian", "result": "> 100", "unit": "µM"}, {"measurement": "TGI", "setting": "RPMI-8226 leukemia", "result": "> 100", "unit": "µM"}, {"measurement": "TGI", "setting": "RXF 393 renal", "result": "> 100", "unit": "µM"}, {"measurement": "TGI", "setting": "RXF-631 renal", "result": "> 100", "unit": "µM"}, {"measurement": "TGI", "setting": "SF-268 CNS", "result": "> 100", "unit": "µM"}, {"measurement": "TGI", "setting": "SF-295 CNS", "result": "> 100", "unit": "µM"}, {"measurement": "TGI", "setting": "SF-539 CNS", "result": "> 100", "unit": "µM"}, {"measurement": "TGI", "setting": "SK-MEL-2 melanoma", "result": "> 100", "unit": "µM"}, {"measurement": "TGI", "setting": "SK-MEL-28 melanoma", "result": "> 100", "unit": "µM"}, {"measurement": "TGI", "setting": "SK-MEL-5 melanoma", "result": "> 100", "unit": "µM"}, {"measurement": "TGI", "setting": "SK-OV-3 ovarian", "result": "> 100", "unit": "µM"}, {"measurement": "TGI", "setting": "SN12C renal", "result": "> 100", "unit": "µM"}, {"measurement": "TGI", "setting": "SNB-19 CNS", "result": "> 100", "unit": "µM"}, {"measurement": "TGI", "setting": "SNB-75 CNS", "result": "> 100", "unit": "µM"}, {"measurement": "TGI", "setting": "SNB-78 CNS", "result": "> 100", "unit": "µM"}, {"measurement": "TGI", "setting": "SW-620 colon", "result": "> 100", "unit": "µM"}, {"measurement": "TGI", "setting": "TK-10 renal", "result": "> 100", "unit": "µM"}, {"measurement": "TGI", "setting": "U251 CNS", "result": "> 100", "unit": "µM"}, {"measurement": "TGI", "setting": "UACC-257 melanoma", "result": "> 100", "unit": "µM"}, {"measurement": "TGI", "setting": "UACC-62 melanoma", "result": "> 100", "unit": "µM"}, {"measurement": "TGI", "setting": "UO-31 renal", "result": "> 100", "unit": "µM"}, {"measurement": "TGI", "setting": "XF 498 CNS", "result": "> 100", "unit": "µM"}]}
{"smiles": "Nc1ncn(C2OC(CO)C(O)C2O)c(=O)n1", "note": "(configuration not stated)", "values": [{"measurement": "GI50", "setting": "DMS 114 small cell lung", "result": "9.47 µM and 1.17 µM"}, {"measurement": "TGI", "setting": "EKVX NSCLC", "result": "215 µM and > 72.8 µM and 26.5 µM"}, {"measurement": "TGI", "setting": "HOP-18 NSCLC", "result": "250 µM and 125 µM"}, {"measurement": "TGI", "setting": "M19-MEL melanoma", "result": "> 250 µM and 28.4 µM"}, {"measurement": "GI50", "setting": "P388 leukemia", "result": 0.55, "unit": "µM"}, {"measurement": "TGI", "setting": "P388 leukemia", "result": "36.7 µM and 7.61 µM"}, {"measurement": "GI50", "setting": "P388/ADR leukemia", "result": 0.611, "unit": "µM"}, {"measurement": "TGI", "setting": "P388/ADR leukemia", "result": "41.1 µM and 11.6 µM"}, {"measurement": "TGI", "setting": "XF 498 CNS", "result": "61.2 µM and 11.4 µM"}]}
